# Like-named read-outs stand apart in the source and are kept apart here.
# Columns and labels:
# Conditions in all cases: human, 2880 min
# CYP1A2 = tested on: CYP1A2
# Method: (§1) Cryopreserved human hepatocytes (XenoTeek) were rapidly thawed at 37°C, and viable cells were obtained using Hepatocytes Isolation Kit (Nosan Corporation). After cells prepared were diluted with ice cold William's Medium E (10% FBS, +PSG) to give a concentration of 5 x 10^5 viable cells/mL, the cells were seeded onto a 48-well collagen-coated plate (BD Biosciences) at a concentration of 1 x 10^5 cells/cm^2 and cultured at 37°C in 5% CO2 for 24 hours. Then, the medium was replaced with Hepato-STIM (registered trade mark: BD Biosciences) (+EGF, PSG, -FBS), and the cells were further cultured at 37°C in 5% CO2 for 24 hours. […] The culture medium containing test compound, β-NF or Rif was replaced every 24 hours. Test compound, β-NF and Rif were each dissolved in dimethyl sulfoxide (DMSO: Wako Pure Chemical Industries, Ltd.), and culture medium containing test compound (final concentrations; 1, 3 and 10µM), β-NF (final concentration; 10µM) or Rif (final concentration; 10µM) was prepared by adding them to Hepato-STIM(+EGF, PSG, -FBS), respectively. […] The levels of mRNA for CYP1A1 and GAPDH were quantified using SYBR Green PCR Core Reagents Kit (Applied Biosystems), and those for CYP1A2 and that of CYP3A4 were measured using Taqman PCR Core Reagents Kit (Applied Biosystems) and ABI Prism 7900 Sequence Detection System (Applied Biosystems).
# (§2) The ability of a test compound to induce CYP1A1 was calculated as follows: Ability of a test compound to induce CYP1A1 (%) = {[(amount of mRNA of CYP1A1 in test compound treated cells)/(amount of mRNA of GAPDH in test compound treated cells)]/[(amount of mRNA of CYP1A1 in control cells)/(amount of mRNA of GAPDH in control cells)] - 1}/{[(amount of mRNA of CYP1A1 in positive control treated cells)/(amount of mRNA of GAPDH in positive control treated cells)]/[(amount of mRNA of CYP1A1 in control cells)/(amount of mRNA of GAPDH in control cells)] -1} x 100 The ability to induce CYP1A2 or CYP3A4 was calculated in the same manner described above.
# CYP3A4 = tested on: CYP3A4
# Method: as §1, §2
# CYP1A1 = tested on: CYP1A1
# Method: Cryopreserved human hepatocytes (XenoTeek) were rapidly thawed at 37°C, and viable cells were obtained using Hepatocytes Isolation Kit (Nosan Corporation). […] Then, the medium was replaced with Hepato-STIM (registered trade mark: BD Biosciences) (+EGF, PSG, -FBS), and the cells were further cultured at 37°C in 5% CO2 for 24 hours. […] The culture medium containing test compound, β-NF or Rif was replaced every 24 hours. […] The levels of mRNA for CYP1A1 and GAPDH were quantified using SYBR Green PCR Core Reagents Kit (Applied Biosystems), and those for CYP1A2 and that of CYP3A4 were measured using Taqman PCR Core Reagents Kit (Applied Biosystems) and ABI Prism 7900 Sequence Detection System (Applied Biosystems).
SMILES,Induction Ability compared to positive control (%) CYP1A2 (CYP1A2; 1 uM),Induction Ability compared to positive control (%) CYP1A2 (CYP1A2; 3 uM),Induction Ability compared to positive control (%) CYP1A2 (CYP1A2; 10 uM),Induction Ability compared to positive control (%) CYP3A4 (CYP3A4; 1 uM),Induction Ability compared to positive control (%) CYP3A4 (CYP3A4; 3 uM),Induction Ability compared to positive control (%) CYP3A4 (CYP3A4; 10 uM),Induction Ability compared to positive control (%) CYP1A1 (CYP1A1; 1 uM),Induction Ability compared to positive control (%) CYP1A1 (CYP1A1; 3 uM),Induction Ability compared to positive control (%) CYP1A1 (CYP1A1; 10 uM)
"CNc1nc(-c2cccc(NC(=O)c3ccc(C(=O)OC)cc3)c2)c2cc(OC)c(OC)cc2n1 [Example 1, methyl N-[3-(6,7-dimethoxy-2-methylaminoquinazolin-4-yl)phenyl]terephthalamic acid]",-0.1%,-0.7%,2.5%,-2.4%,-3.4%,-4.0%,0.1%,0.6%,4.6%
"O=c1cc(-c2ccccc2)oc2ccc3ccccc3c12 [β-naphthoflavone, reference compound]",,,,,,,,,100.0%
